Test results: US20250346643A1, “TROPOMYOSIN KINASE RECEPTOR (TRK) LIGANDS AS THERAPEUTICS TO SUPPORT LIVER REGENERATION” (Vanderbilt University, priority 2024, published 2025)

Assays:
Assay type in all cases: cell-based, human
CCND1 = experiment: Western blot of CCND1 in HepG2 cell lysates
Experimental: Human HepG2 and mouse AML12 cells were grown in 6-well plates. Cells were treated with NTF3 (20 ng/ml) purchased from STEMCELL technologies, Vancouver, Canada (cat. 78074), R&D Systems, Minneapolis, MN (267-N3), Gibco, Waltham, MA (PHC7036) and/or Loxo-195 (5-10 nM) (Selleckchem, Houston, TX; S8636) in complete growth media without L-glutamine for 2 hours. Lyophilized NTF3 was solubilized with sterile filtered PBS supplemented with 0.1% BSA, aliquoted and stored at −80° C. until use. […] HepG2 and AML12 cells were collected on ice in PBS, centrifuged for 10 sec […] cell pellet homogenized in RIPA buffer containing inhibitors (Roche, Basel, Switzerland; complete Mini proteinase inhibitor, 1×HALT phosphatase inhibitors, Thermo Scientific, Waltham, MA; cat. 78428). Cell lysates were sonicated and centrifuged for 10 min at 18,800×g. Protein concentration of supernatants were determined by Direct Detect Spectrophotometer (MilliporeSigma, Burlington, MA).
For immunoblot analysis, 30-50 μg of protein diluted in LSD sample buffer (Invitrogen, Waltham, MA) were analyzed per SDS-PAGE (NuPAGE™, Invitrogen, Waltham, MA) using MOPS buffer or MES buffer (Invitrogen, Waltham, MA). Gels were stained with Coomassie (Bio-Safe Coomassie G-250 Stain, Bio-Rad, Hercules, CA) and transferred onto PVDF membranes using semi-dry blotting (Trans-Blot SD, Bio-Rad, Hercules, CA). Images were visualized on an Amersham™ Imager 680 (Cytiva, Marlborough, MA). Semi-quantitative band densitometry was performed using ImageJ software (version 1.53).

mTORC1 = experiment: Immunoblotting of HDOs for P-S6RP and P-P70S6K (mTORC1 activation); conditions: HDO, serum free and glutamine free William's E medium (FIG. 20A-C)
Experimental: Human ductal organoids. The normal human liver tissue was obtained through the Cooperative Human Tissue Network (CHTN) at Vanderbilt University Medical Center. The liver was cut into very small pieces in liver digestion medium (Gibco, Waltham, MA; 17703-034). The cell suspension was filtered through a 100-μm cell strainer. The flow through was then centrifuged for 2 min at 100 g, 4° C., and the cell pellet resuspended in ice-cold DMEM (Gibco, Waltham, MA; 11885-084, supplemented by 5% FBS) and centrifuged for 2 min at 300 g. The cell pellet was gently resuspended in Matrigel® (Corning, Corning, NY; 356231) and a […] dome plated in a 24-well plate. The plate was incubated for 10-15 min at 37° C. After solidifying, complete HepatiCult™ Organoid Initiation Medium (OIM) (STEMCELL Technologies, Vancouver, Canada; 100-0384) was added. For passaging, the Matrigel dome was dissociated using TrypLE (Thermo Fisher Scientific, Waltham, MA; 12604013) and incubated at 37° C. for 5 mins. Organoids were washed by resuspending in advanced DMEM/F12 and consecutive resuspension of the organoid pellet. Organoids were resuspended at a 1:10 dilution in Matrigel® and cultured in complete HepatiCult™ Organoid Growth Medium (OGM) (STEMCELL Technologies, Vancouver, Canada; 100-0385) for organoid expansion. For hepatocytic differentiation of hepatic ductal organoids, culture medium was changed to complete HepatiCult™ Organoid Differentiation Medium (ODM) (STEMCELL Technologies, 100-0383) 4 days after passaging. Vehicle, NTF3, BDNF, HGF (20 ng/ml final concentration) or Taletrectinib (Fisher Scientific, Waltham, MA; 502030245, final concentration 10 nM) or torin2 (Fisher Scientific, Waltham, MA; s2817, final concentration 25 nM) were diluted in William's E (without L-glutamine) and added to organoids.
Immunoblotting. HDOs and mpPHH were homogenized in RIPA buffer containing proteinase inhibitors (Roche, Basel, Switzerland; cOmplete™ Mini protease inhibitor, 2 tab/10 ml buffer) and 1×HALT phosphatase inhibitors (Thermo Fisher Scientific, Waltham, MA; catalog no. 78428). Lysates were sonicated and then centrifuged for 10 min at 18,800 g. Protein concentration of supernatants was determined by Direct Detect Spectrophotometer (MilliporeSigma, Burlington, MA). HDOs were treated with growth factors as described above. Lyophilized NTF3 was solubilized with sterile-filtered PBS supplemented with 0.1% BSA, aliquoted, and stored at −80° C. until use. […] HDOs and mpPHH were collected on ice in PBS and centrifuged for 10 s, and the cell pellet was homogenized in RIPA buffer containing inhibitors (Roche, Basel, Switzerland; cOmplete™ Mini protease inhibitor, 1×HALT phosphatase inhibitors, Thermo Fisher Scientific, Waltham, MA; catalog no. 78428). Cell lysates were sonicated and centrifuged for 10 min at 18,800 g. The protein concentration of supernatants was determined by a Direct Detect® spectrophotometer (MilliporeSigma, Burlington, MA). For immunoblot analysis, 10 to 50 μg of protein diluted in […] sample buffer (Invitrogen, Waltham, MA) were analyzed per SDS-polyacrylamide gel electrophoresis (NuPAGE™, Invitrogen, Waltham, MA) using Mops buffer or MES buffer (Invitrogen, Waltham, MA). […] Semi-quantitative band densitometry was performed using ImageJ software (version 1.53).

mTOR = experiment: Immunoblotting of mpPHH for P-S6RP and P-P70S6K (mTOR activation); conditions: NTF3
Experimental: Mouse passaged primary human hepatocytes. Mouse-passaged primary human hepatocytes (mpPHHs) were collected as previously described (Michailidis et al., Proc Natl Acad Sci USA. 2020; 117(3): 1678-1688) and cultured in hepatocyte culture media (CC-3198, Lonza, Basel, Switzerland) in collagen-coated chamber slides. Three days before treatment, mpPHH were incubated in William's E media (with L-glutamine). […] 5-15 images per treatment per experiment were randomly taken and EdU positive nuclei quantified.
Immunoblotting. […] Protein concentration of supernatants was determined by Direct Detect Spectrophotometer (MilliporeSigma, Burlington, MA). […] The protein concentration of supernatants was determined by a Direct Detect® spectrophotometer (MilliporeSigma, Burlington, MA). For immunoblot analysis, 10 to 50 μg of protein diluted in […] sample buffer (Invitrogen, Waltham, MA) were analyzed per SDS-polyacrylamide gel electrophoresis (NuPAGE™, Invitrogen, Waltham, MA) using Mops buffer or MES buffer (Invitrogen, Waltham, MA). […] Semi-quantitative band densitometry was performed using ImageJ software (version 1.53).

phosphorylation of P-p70S6 kinase and P-S6 ribosomal protein (S6RP) (mTORC1): significantly increased phosphorylation
Substance: NTF3: neurotrophin-3, recombinant protein; HSC-derived hepatocyte mitogen, ligand of TRKA, TRKB, TRKC
CCND1 amounts, NTF3 from three different vendors (CCND1; HepG2 (FIG. 9K-L)): CCND1 amounts increased
CCND1 abundance (CCND1; HepG2, NTF3 20 ng/ml, 2 hours (FIG. 8I-J)): increased CCND1 abundance
levels of phosphorylated P-S6RP Ser240/244 and P-pS70SK Thr389 (mTOR): increased levels
